Results published in paper PMC6136390, “Coptisine-induced inhibition of Helicobacter pylori: elucidation of specific mechanisms by probing urease active site and its maturation process” (Journal of Enzyme Inhibition and Medicinal Chemistry, 2018).
Where two headings read alike, the source gives them in different places.

Columns and labels:
H. pylori strains = test: Minimal bactericidal concentration assay (broth dilution); type: cell-based, Helicobacter pylori
Description: Fourteen H. pylori strains were used in this study. NCTC 11637 and NCTC 26695 strains were purchased from American Type Culture Collection. Sydney Strain-1 (SS1) was kindly provided by Prof. Richard Ferrero of Monash University, Australia. Clinical isolate ICDC 111001 was provided by Prof. Zhang Jian-zhong of the Chinese Center for Disease Control and Prevention, China. Ten clinical isolates (Hp1868, Hp1869, Hp1870, Hp1871, Hp1872, Hp1873, Hp1874, Hp1875, Hp1876, and Hp1877) were obtained from Renji Hospital, Shanghai Jiaotong University.
(§1) All strains were cultured in Columbia agar base containing 7% sheep blood at 37 °C in a micro-aerophilic environment (5% O2, 10% CO2, and 85% N2). After 3 days, H. pylori was scraped and suspended in phosphate buffered saline (PBS). Turbidimetry was employed to adjust the concentrations of different H. pylori strains (turbidity equivalent to 1.0 McFarland standard). Crude HPU was obtained according to the method described by Matsubara et al.[42]
The broth dilution method was used to determine the minimal bactericidal concentrations (MBCs) of coptisine (25, 37.5, 50, 62.5, 75, 100, and 125 μg/mL) against three H. pylori standard strains (SS1, NCTC 11637, and NCTC 26695) and eleven clinical isolates (ICDC 111001, HP 1868, HP 1869, HP 1870, HP 1871 and HP 1872, HP 1873, HP 1874, HP 1875, HP 1876, and HP 1877). In brief, H. pylori suspension (McFarland = 1.0) was exposed to DMSO (control) and coptisine at 2–4 times MIC in BHI with 10% FBS. After shaking at 120 rpm in the tri-gas incubator for 6 h, 100 μL samples were removed and cultured in Columbia blood agar base[43]. MBC was defined as a 99.9% decrease in viability compared with the control. The experiment was repeated twice.

H. pylori cells (SS1) = test: pH shock experiment in vivo (urea-dependent survival of H. pylori); type: cell-based, Helicobacter pylori; settings: for surviving bacteria, pH =1: 100 mM HCl pH 1, 5 mM urea; for surviving bacteria, pH =1 / surviving bacteria, pH =7.2: 30 min; for surviving bacteria, pH =7.2: PBS pH 7.2, 5 mM urea; for inhibition at 50 µM / inhibition at 100 µM / inhibition at 200 µM: Helicobacter pylori, 0.5 h
Experimental: H. pylori cells (SS1) were harvested, and the concentration was adjusted to Mc = 4 with saline. Then, bacterial samples were mixed with AHA (positive control, 5 mM) or one of the five alkaloids from Rhizoma Coptidis (coptisine, berberine, jatrorrhizine, epiberberine, and palmatine) in 100 mM HCl (pH = 1) or PBS (pH = 7.2) at 37 °C with or without 5 mM urea. After 30 min of incubation, bacteria were collected by centrifugation at 2000g for 10 min and resuspended in the same volume of PBS. A dilution series (1:1–1:10000) was made from the samples, and the dilutions were plated on solid agar for 5 days to form single colony. Samples from urea-free wells were used as controls. Results are expressed as CFU/mL; the experiment was repeated in triplicate. Inhibition rate was calculated using the following equation: Inhibition rate = (Urea group bacterial mean − X group bacterial mean)/Urea group bacterial mean ×100%, where X represents each experimental group.

H. pylori urease (HPU) = molecular target: T1, H. pylori urease (HPU) (Helicobacter pylori, UniProt P69996); test: Urease inhibition assay in vitro (modified Berthelot method); type: biochemical
T1 construct: Crude HPU was obtained according to the method described by Matsubara et al; endogenous in cells; host or cells: cultured Helicobacter pylori (strain not specified)
Experimental: as §1
This assay was performed using the modified Berthelot method (phenol-hypochlorite) in 96 well plates. At the beginning of each reaction, different concentrations of urease solution and 150 mM urea as a substrate were mixed in 20 mM HEPES buffer (pH 7.5) at 37 °C. After a 20-min reaction, urease activity was tested by measuring the concentration of ammonia produced by the reaction at 595 nm using the microplate reader (Thermo Fisher Multiskan FC, Instruments, Inc., USA) at ambient temperature. […] One unit (U) of urease activity was defined as the amount of urease required to catalyse 1 μmol urea per min. […]
Coptisine’s ability to inhibit urease activity was determined by measuring amounts of ammonia produced using the modified Berthelot method described above. […] Residual activity (RA %) for each assay was calculated using the following equation: RA % = (activity with inhibitors/activity without inhibitors) × 100%. […]

jack bean urease (JBU) = molecular target: T2, jack bean urease (JBU) (Canavalia ensiformis, UniProt P07374); test: as above; type: biochemical
T2 construct: purchased Sigma Aldrich (Steineheim, Germany) type III (catalogue number not given)
Experimental: This assay was performed using the modified Berthelot method (phenol-hypochlorite) in 96 well plates. At the beginning of each reaction, different concentrations of urease solution and 150 mM urea as a substrate were mixed in 20 mM HEPES buffer (pH 7.5) at 37 °C. After a 20-min reaction, urease activity was tested by measuring the concentration of ammonia produced by the reaction at 595 nm using the microplate reader (Thermo Fisher Multiskan FC, Instruments, Inc., USA) at ambient temperature. […] One unit (U) of urease activity was defined as the amount of urease required to catalyse 1 μmol urea per min. These experiments were repeated in triplicate.
Coptisine’s ability to inhibit urease activity was determined by measuring amounts of ammonia produced using the modified Berthelot method described above. The assay mixture, which contained 200 μL of enzyme and 200 μL of coptisine solution (0.16–2.51 mM) in 200 μL of 20 mM HEPES buffer (pH 7.5), was incubated for 20 min at 37 °C in 96-well plates. The reaction was then initiated by adding urea solution (150 mM) to determine residual urease activity. AHA was used as a standard urease inhibitor. […] Residual activity (RA %) for each assay was calculated using the following equation: RA % = (activity with inhibitors/activity without inhibitors) × 100%. […]

[1] = pH 1, read-out: Inhibition rate, pH =1
[2] = pH 7.2, read-out: Inhibition rate, pH =7.2

T1 sequence (P69996 whole entry): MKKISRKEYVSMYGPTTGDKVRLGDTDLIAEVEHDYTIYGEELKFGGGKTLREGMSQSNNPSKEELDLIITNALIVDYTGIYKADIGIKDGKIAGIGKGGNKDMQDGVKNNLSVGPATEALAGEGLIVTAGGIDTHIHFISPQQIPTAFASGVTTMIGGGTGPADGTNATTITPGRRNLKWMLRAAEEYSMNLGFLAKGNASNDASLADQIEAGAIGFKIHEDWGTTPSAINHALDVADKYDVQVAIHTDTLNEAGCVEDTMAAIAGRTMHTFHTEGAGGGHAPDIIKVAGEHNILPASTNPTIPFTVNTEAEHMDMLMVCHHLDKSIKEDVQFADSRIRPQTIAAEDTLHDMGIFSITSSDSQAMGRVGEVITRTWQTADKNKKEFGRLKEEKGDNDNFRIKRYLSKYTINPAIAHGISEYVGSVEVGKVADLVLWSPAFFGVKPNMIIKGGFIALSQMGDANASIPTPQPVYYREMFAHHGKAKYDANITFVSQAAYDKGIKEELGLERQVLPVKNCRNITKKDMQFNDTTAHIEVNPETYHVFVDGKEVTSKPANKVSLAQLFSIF
T1 sequence (P14916 whole entry, further chain): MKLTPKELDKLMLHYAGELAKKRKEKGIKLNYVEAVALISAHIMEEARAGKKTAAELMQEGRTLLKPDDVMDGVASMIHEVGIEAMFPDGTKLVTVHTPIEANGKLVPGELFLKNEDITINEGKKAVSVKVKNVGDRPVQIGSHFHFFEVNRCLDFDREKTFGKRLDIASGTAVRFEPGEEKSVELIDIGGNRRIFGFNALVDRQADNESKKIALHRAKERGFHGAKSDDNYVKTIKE
T2 sequence (P07374 whole entry, looked up): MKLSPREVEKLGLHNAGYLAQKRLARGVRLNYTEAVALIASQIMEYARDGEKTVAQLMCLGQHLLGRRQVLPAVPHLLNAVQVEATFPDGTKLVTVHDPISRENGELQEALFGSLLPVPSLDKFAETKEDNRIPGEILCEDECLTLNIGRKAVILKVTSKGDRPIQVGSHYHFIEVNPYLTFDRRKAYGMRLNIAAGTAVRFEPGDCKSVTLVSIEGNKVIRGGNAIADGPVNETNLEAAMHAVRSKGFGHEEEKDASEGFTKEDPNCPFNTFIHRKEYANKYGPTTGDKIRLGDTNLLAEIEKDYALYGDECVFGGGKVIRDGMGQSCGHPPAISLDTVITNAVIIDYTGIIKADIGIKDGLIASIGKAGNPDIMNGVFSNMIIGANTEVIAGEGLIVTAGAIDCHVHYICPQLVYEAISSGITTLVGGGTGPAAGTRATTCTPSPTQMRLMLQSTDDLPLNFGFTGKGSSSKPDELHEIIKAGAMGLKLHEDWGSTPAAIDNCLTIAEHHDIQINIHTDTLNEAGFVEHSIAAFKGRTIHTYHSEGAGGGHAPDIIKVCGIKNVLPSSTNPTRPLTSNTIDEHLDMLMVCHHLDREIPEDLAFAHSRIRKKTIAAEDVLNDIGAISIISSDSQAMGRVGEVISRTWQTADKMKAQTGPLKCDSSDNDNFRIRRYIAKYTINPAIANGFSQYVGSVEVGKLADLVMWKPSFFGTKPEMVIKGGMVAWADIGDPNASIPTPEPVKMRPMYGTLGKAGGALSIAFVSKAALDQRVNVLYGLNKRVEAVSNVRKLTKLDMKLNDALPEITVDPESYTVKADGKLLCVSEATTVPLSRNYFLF

## c1c2c(cc3c1OCO3)-c1cc3ccc4c(c3c[n+]1CC2)OCO4 [Coptisine]
H. pylori strains; Helicobacter pylori, NCTC11637, strain NCTC 11637, pH = 7.2, read-out: MBC
  MBC: 62.5 µg/mL
H. pylori strains; Helicobacter pylori, NCTC26695, strain NCTC 26695, pH = 7.2, read-out: MBC
  MBC: 37.5 µg/mL
H. pylori strains; Helicobacter pylori, clinical isolate HP 1868, pH = 7.2, read-out: MBC
  MBC: 62.5 µg/mL
H. pylori strains; Helicobacter pylori, clinical isolate HP 1869 (MET resistance), pH = 7.2, read-out: MBC
  MBC: 62.5 µg/mL
H. pylori strains; Helicobacter pylori, clinical isolate HP 1870 (CLR and MET resistance), pH = 7.2, read-out: MBC
  MBC: 37.5 µg/mL
H. pylori strains; Helicobacter pylori, clinical isolate HP 1871 (MET resistance), pH = 7.2, read-out: MBC
  MBC: 37.5 µg/mL
H. pylori strains; Helicobacter pylori, clinical isolate HP 1872, pH = 7.2, read-out: MBC
  MBC: 37.5 µg/mL
H. pylori strains; Helicobacter pylori, clinical isolate HP 1873, pH = 7.2, read-out: MBC
  MBC: 75 µg/mL
H. pylori strains; Helicobacter pylori, clinical isolate HP 1874, pH = 7.2, read-out: MBC
  MBC: 100 µg/mL
H. pylori strains; Helicobacter pylori, clinical isolate HP 1875, pH = 7.2, read-out: MBC
  MBC: 75 µg/mL
H. pylori strains; Helicobacter pylori, clinical isolate HP 1876 (CLR and MET resistance), pH = 7.2, read-out: MBC
  MBC: 75 µg/mL
H. pylori strains; Helicobacter pylori, clinical isolate HP 1877, pH = 7.2, read-out: MBC
  MBC: 125 µg/mL
H. pylori strains; Helicobacter pylori, clinical isolate ICDC 111001, pH = 7.2, read-out: MBC
  MBC: 50 µg/mL
H. pylori strains; Helicobacter pylori, strain SS1, pH = 7.2, read-out: MBC
  MBC: 37.5 µg/mL
H. pylori strains; clinical isolate HP 1868
  MBC/MIC: 1.25
H. pylori strains; clinical isolate HP 1869
  MBC/MIC: 1.25
H. pylori strains; clinical isolate HP 1869 (MET resistance), pH = 7.2
  MBC: 62.5 µg/mL
H. pylori strains; clinical isolate HP 1870
  MBC/MIC: 1.5
H. pylori strains; clinical isolate HP 1870 (CLR and MET resistance), pH = 7.2
  MBC: 37.5 µg/mL
H. pylori strains; clinical isolate HP 1871
  MBC/MIC: 1.5
H. pylori strains; clinical isolate HP 1871 (MET resistance), pH = 7.2
  MBC: 37.5 µg/mL
H. pylori strains; clinical isolate HP 1872
  MBC/MIC: 1.5
H. pylori strains; clinical isolate HP 1873
  MBC/MIC: 1.5
H. pylori strains; clinical isolate HP 1874
  MBC/MIC: 2
H. pylori strains; clinical isolate HP 1875
  MBC/MIC: 1.5
H. pylori strains; clinical isolate HP 1876
  MBC/MIC: 1.5
H. pylori strains; clinical isolate HP 1876 (CLR and MET resistance), pH = 7.2
  MBC: 75 µg/mL
H. pylori strains; clinical isolate HP 1877
  MBC/MIC: 2.5
H. pylori strains; clinical isolate ICDC 111001
  MBC/MIC: 2
H. pylori strains; strain NCTC 11637
  MBC/MIC: 2.5
H. pylori strains; strain NCTC 26695
  MBC/MIC: 1.5
H. pylori strains; strain SS1
  MBC/MIC: 1.5
H. pylori cells (SS1); 50 μM compound
  surviving bacteria, pH =1: 129 ± 31 CFU/mL
  surviving bacteria, pH =7.2: 1.0 ± 0.2 ×10^4 CFU/mL
H. pylori cells (SS1); 100 μM compound
  surviving bacteria, pH =1: 25 ± 6 CFU/mL
  surviving bacteria, pH =7.2: 1.3 ± 0.3 ×10^4 CFU/mL
H. pylori cells (SS1); 200 μM compound
  surviving bacteria, pH =1: 7 ± 3 CFU/mL
  surviving bacteria, pH =7.2: 1.2 ± 0.3 ×10^4 CFU/mL
H. pylori cells (SS1); [1]
  inhibition at 50 µM: 72.7%
  inhibition at 100 µM: 94.7%
  inhibition at 200 µM: 98.5%
H. pylori cells (SS1); [2]
  inhibition at 50 µM: 0%
  inhibition at 100 µM: 0%
  inhibition at 200 µM: 0%
H. pylori urease (HPU)
  IC50: 1.78 ± 0.06 mM
Jack bean urease (JBU)
  IC50: 0.26 ± 0.02 mM
